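Assay format: 96-well plates, 48-hour exposure. Abbreviation: GI50, concentration required for 50% inhibition of growth. The concentration for full growth arrest is given as TGI.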 Where a SMILES comes first, the peptide text is derived from it. [ ]: non-standard residue; d: D form. Phe(4-Cl) = N[CH](Cc1ccc(Cl)cc1)C(=O)O
Columns and labels:
Assay in all cases: DTP human tumour cell line panel, 48 h
[1] = system: COLO 205 colon
[2] = system: SNB-75 CNS
[3] = system: SF-268 CNS
[4] = system: RXF 393 renal
[5] = system: HCT-15 colon
[6] = system: SF-539 CNS
[7] = system: RPMI-8226 leukemia
[8] = system: OVCAR-5 ovarian
[9] = system: K-562 leukemia
[10] = system: SR leukemia

Row | SMILES | TGI [1] | TGI [2] | TGI [3] | TGI [4] | TGI [5] | TGI [6] | TGI [7] | TGI [8] | TGI [9] | TGI [10] | GI50 [1] | GI50 [2] | GI50 [3] | GI50 [4] | GI50 [5] | GI50 [6] | GI50 [7] | GI50 [8] | GI50 [9]
1 | O=C1NC(=O)c2ccc([N+](=O)[O-])c3cccc1c23 | 30.9 µM | 85.9 µM | 62 µM | 29.1 µM | 22.4 µM | 31.8 µM | 37.7 µM | 32.3 µM | 32.7 µM | – | – | – | – | – | – | – | – | – | –
2 | Nc1ccc(/C=C/c2ccnc3ccccc23)cc1 | 48.6 µM | 41.8 µM | 47.5 µM | – | > 100 µM | 47.9 µM | 52.7 µM | 60.9 µM | 44 µM | 32.4 µM | – | – | – | – | – | – | – | – | –
3 | CC(=O)[CH-]C(=O)c1ccccc1.CC(=O)[CH-]C(=O)c1ccccc1.O=C([O-])c1ccc([O-])cc1.O=C([O-])c1ccc([O-])cc1.[Ti+4] | 40.1 µM | > 100 µM | > 100 µM | 56.4 µM | > 100 µM | > 100 µM | 62.8 µM | > 100 µM | > 100 µM | – | 20.6 µM | 29.1 µM | 25 µM | 15.3 µM | 56.6 µM | 40.2 µM | 20.7 µM | 74.5 µM | 33.5 µM
4 | CN(C)CCCn1c2c(c3ccccc3c1=O)C(=O)c1ccccc1-2 | 24.8 µM | 33.1 µM | 15.2 µM | 49.3 µM | 12 µM | 9.14 µM | 5.79 µM | 14 µM | 8.01 µM | – | 7.52 µM | 14.2 µM | 2.71 µM | 5.38 µM | 1.85 µM | 1.86 µM | 1.4 µM | 3.06 µM | 1.9 µM
5 | CC(C)(C)OC(=O)Cc1ccc2c(ccn2Cc2ccccc2)c1 | > 100 µM | > 100 µM | > 100 µM | > 100 µM | > 100 µM | > 100 µM | – | > 100 µM | > 100 µM | – | – | – | – | – | – | – | – | – | –
6 | CN(C)CCNC(=O)c1cccc(C(=O)Nc2ccccc2)c1[N+](=O)[O-] | > 100 µM | > 100 µM | > 100 µM | – | > 100 µM | > 100 µM | – | > 100 µM | > 100 µM | > 100 µM | – | – | – | – | – | – | – | – | –
7 | NC(N)=NCCCn1c2c(c3ccccc3c1=O)C(=O)c1ccccc1-2 | 79.7 µM | 26.4 µM | 9.45 µM | 42.4 µM | – | 2.14 µM | > 100 µM | 94.6 µM | 29.5 µM | – | 21.2 µM | 5.69 µM | 1.53 µM | 7.82 µM | – | 0.369 µM | 42.7 µM | 25.7 µM | 11.6 µM
8 | CC(C)N(C(=O)C12CC3CC(CC(C3)C1)C2)C(C)C | > 50 µM | > 50 µM | > 50 µM | > 50 µM | > 50 µM | > 50 µM | > 50 µM | > 50 µM | > 50 µM | – | – | – | – | – | – | – | – | – | –
9 | CC[O-].CC[O-].O=C1c2ccccc2C(=O)c2c(O)ccc([O-])c21.O=C1c2ccccc2C(=O)c2c(O)ccc([O-])c21.[Ti+4] | > 100 µM | > 100 µM | > 100 µM | 90.4 µM | > 100 µM | > 100 µM | > 100 µM | > 100 µM | > 100 µM | – | – | – | – | – | – | – | – | – | –
10 | O=C(CCl)Nc1ccc(Cl)cc1 | 3.61 µM | 21.1 µM | 7.66 µM | 4.43 µM | 6.33 µM | 12.6 µM | 9.45 µM | 12.9 µM | – | – | 1.98 µM | 7.43 µM | 2.72 µM | 2.14 µM | 2.27 µM | 3.78 µM | 3.14 µM | 3.57 µM | –
11 | O=S(=O)(/N=S(/Nc1ccccc1)C(Cl)Cl)c1ccccc1 (stereo not given) | > 100 µM | > 100 µM | > 100 µM | > 100 µM | > 100 µM | > 100 µM | > 100 µM | > 100 µM | > 100 µM | – | – | – | – | – | – | – | – | – | –
12 | Fc1cc(F)c(COc2cc(Cn3cnc4c(Cl)nc(Cl)nc43)ccc2C23CC4CC(CC(C4)C2)C3)cc1F | 39.1 µM | 52.1 µM | 33.1 µM | 29.7 µM | 31.9 µM | 32.3 µM | – | 37.4 µM | – | – | 17.8 µM | 21.7 µM | 16.4 µM | 15.3 µM | 16 µM | 17.9 µM | – | 19.9 µM | –
13 | N#Cc1nc(C2OC(COC(=O)c3ccccc3)C(OC(=O)c3ccccc3)C2OC(=O)c2ccccc2)oc1N (stereo not given) | > 100 µM | > 100 µM | > 100 µM | > 100 µM | > 100 µM | > 100 µM | 5.63 µM | > 100 µM | > 100 µM | – | – | – | – | – | – | – | – | – | –
14 | CC(O)C(NC(=O)C(Cc1ccccc1)NC(=O)C(NC(=O)C(CCCCN)NC(=O)C(Cc1c[nH]c2ccccc12)NC(=O)C(Cc1ccc(O)cc1)NC(=O)C(Cc1ccc(Cl)cc1)NC(=O)C(N)Cc1ccccc1)C(C)O)C(N)=O (stereo not given) (H-F[Phe(4-Cl)]YWKTFT-NH2; configuration not given here) | 51.7 µM | 37.4 µM | – | 30.3 µM | 41.5 µM | 42.3 µM | 33.5 µM | – | 28.9 µM | – | – | – | – | – | – | – | – | – | –
15 | O=C(O)CN(c1ccccc1)S(=O)(=O)c1ccccc1[N+](=O)[O-] | > 100 µM | > 100 µM | > 100 µM | > 100 µM | > 100 µM | > 100 µM | > 100 µM | > 100 µM | – | – | – | – | – | – | – | – | – | – | –
16 | O=C1c2ccccc2-c2c1c1ccccc1c(=O)n2Cc1ccccc1 | > 100 µM | > 100 µM | > 100 µM | – | > 100 µM | > 100 µM | > 100 µM | > 100 µM | – | > 100 µM | – | – | – | – | – | – | – | – | –
17 | COc1ccc(C(=O)c2cc(C)c(OC)c(C)c2)c(OC)c1N(C(=O)C(Cl)Cl)C(=O)C(Cl)Cl | 4.14 µM | > 100 µM | > 100 µM | – | > 100 µM | 0.206 µM | 20.8 µM | > 100 µM | > 100 µM | – | 0.156 µM | 0.0283 µM | 1.01 µM | – | 0.0617 µM | 0.0343 µM | 0.0794 µM | 0.111 µM | 0.0487 µM
18 | Cc1ccc(N(C(=O)CC(=O)NN)C(=O)c2ccccc2Cl)cc1 | > 100 µM | > 100 µM | > 100 µM | > 100 µM | > 100 µM | > 100 µM | > 100 µM | > 100 µM | > 100 µM | – | – | – | – | – | – | – | – | – | –

Reference: PubChem BioAssay (NCI)
